Reference: publication PMC6160999, “Pharmacokinetics, Tissue Distribution and Excretion of a Novel Diuretic (PU-48) in Rats” (Pharmaceutics, 2018)
Like-named read-outs stand apart in the source and are kept apart here.

Experiment: Plasma pharmacokinetics after single oral PU-48 SNEDDS
Format: in vivo, rat
Details: for AUC(0-inf) / AUC(0-t) / Cmax / Tmax / t1/2 / half-life: rat plasma, n=6
Experimental: The method for quantification PU-48 in rat samples (plasma, thirteen tissues, urine and bile) has been developed and validated in our preliminary experiment. Briefly, PU-48 was quantitative analyzed by the liquid chromatography-electrospray ionization source-triple quadrupole tandem mass spectrometer (LC-MS/MS) system, which consisted of the Shimazdu LC-20AD pumpers (Shimadzu, Kyoto, Japan), a 20 μL loop and a SPD-M20A PDA detector. Chromatographic separation was accomplished on a Shimazdu Inertsil ODS-4 C18 column (2.1 × 100 mm, 3 µm, Shimadzu) and coupled to the API4000 mass spectrometer detector equipped with the Analyst 1.6 software (AB Sciex, Redwood City, CA, USA). The monitored ion transitions were mass-to-charge ratio (m/z) 289.1 → 229.2 for PU-48 and m/z 385.3 → 267.1 for the internal standard under positive mode. The mobile phase consisted of (A) water, and (B) acetonitrile, both containing 0.05% formic acid using the following gradient elution: 0–2 min (20% B), 2–8 min (20–100% B), 8–9.5 min (100% B), 9.5–13 min (20% B). Sample of 5 μL was injected. The quantification analysis of PU-48 in plasma, urine, bile and tissues (liver, muscle, and adipose tissue) were evaluated for specificity, linearity, precision, accuracy and recovery (See Supplementary Materials Tables S1–S3).
After fasting overnight with free drinking water (12 h before the experiment), eighteen rats were divided randomly into three groups, and blood samples at each time point were collected from six rats. The rats were given three doses of PU-48 (3, 6, or 12 mg/kg, respectively, 1.2 mg/mL in the SNEDDS formulation) by oral gavage. Blood samples (0.3 mL) were collected from the ophthalmic venous plexus at the predose, 0.25, 0.5, 1, 2, 4, 6, 8, 12, 24, 36, and 48 h post-dosing (total 12 time points) in heparinized tubes. The blood samples were centrifuged at 2500 rpm (1200× g) for 15 min and the plasma was stored at −20 °C until analysis.
The non-compartmental analysis method was used to calculate the pharmacokinetic parameters of PU-48 using Drug and Statistical Version 3.0 (DAS 3.0) software (the Mathematical Pharmacology Committee, Chinese Pharmacological Society, Beijing, China). The maximum peak concentration of the drug in plasma (Cmax) and the time to reach the maximum concentration (Tmax) were obtained directly from the experimental data. The area under the plasma concentration-time curves from 0 to infinity (i.e., AUC0–∞) and from 0 to the time of the last quantifiable concentration (AUC0–t) was calculated by the trapezoidal summation. The terminal elimination rate constant (Ke) was derived from the slope of the linear regression curve by fitting the natural logarithms of the terminal concentrations versus time. The terminal elimination half-life (t1/2) was calculated by 0.693/Ke. The data from the quality control (QC) samples were examined by a one-way analysis of variance (ANOVA). All values were expressed as mean ± SD (Standard Deviation).

[1] = plasma, rat, oral PU-48 SNEDDS 3 mg/kg
[2] = plasma, rat, oral PU-48 SNEDDS 6 mg/kg
[3] = plasma, rat, oral PU-48 SNEDDS 12 mg/kg

Compound `COC(=O)c1sc2nc3ccc(OC)cc3cc2c1N` [PU-48, Methyl 3-amino-6-methoxythieno [2,3-b] quinoline-2-carboxylate] has a concentration at 0.25 h [1] of 11.9 ± 15.5 ng/mL, a concentration at 0.25 h [2] of 51.1 ± 51.2 ng/mL and a concentration at 0.25 h [3] of 91.1 ± 52 ng/mL. For the same compound, the concentration at 0.5 h [1] was 12.6 ± 11.1 ng/mL, the concentration at 0.5 h [2] was 52.9 ± 46.8 ng/mL and the concentration at 0.5 h [3] was 94.3 ± 49.6 ng/mL. For the same compound, the concentration at 1 h [1] was 11.8 ± 11.2 ng/mL, the concentration at 1 h [2] was 48.3 ± 32.8 ng/mL and the concentration at 1 h [3] was 74.8 ± 36.1 ng/mL. The concentration at 2 h [1] was 13.8 ± 16.6 ng/mL, the concentration at 2 h [2] was 16.8 ± 10.1 ng/mL and the concentration at 2 h [3] was 19.7 ± 4.2 ng/mL. For the same compound, the concentration at 4 h [1] was 1.1 ± 0.7 ng/mL, the concentration at 4 h [2] was 2.3 ± 1.2 ng/mL and the concentration at 4 h [3] was 4.3 ± 3.1 ng/mL. The concentration at 6 h [1] was 0.3 ± 0.2 ng/mL, the concentration at 6 h [2] was 1.2 ± 0.5 ng/mL and the concentration at 6 h [3] was 2.1 ± 0.8 ng/mL. For the same compound, the concentration at 8 h [1] was 0.5 ± 0.9 ng/mL, the concentration at 8 h [2] was 0.6 ± 0.4 ng/mL and the concentration at 8 h [3] was 1.5 ± 0.5 ng/mL. It also gave a concentration at 12 h [1] of 0.1 ± 0.1 ng/mL, a concentration at 12 h [2] of 0.3 ± 0.2 ng/mL and a concentration at 12 h [3] of 1.1 ± 0.8 ng/mL. It also gave a concentration at 24 h [2] of 0.3 ± 0.3 ng/mL, a concentration at 24 h [3] of 0.1 ng/mL and a concentration at 36 h [2] of 0.2 ± 0.1 ng/mL. It also gave a concentration at 36 h [3] of 0.8 ± 0.9 ng/mL, a concentration at 48 h (plasma, 48 h, rat, oral PU-48 SNEDDS 12 mg/kg) of 0.2 ng/mL and an AUC(0-inf) (oral PU-48 SNEDDS 3 mg/kg) of 60.5 ± 38.5 ng·h/mL. The AUC(0-t) (oral PU-48 SNEDDS 3 mg/kg) was 60 ± 38.3 ng·h/mL, the Cmax (oral PU-48 SNEDDS 3 mg/kg) was 12.6 ± 11.1 ng/mL and the Tmax (oral PU-48 SNEDDS 3 mg/kg) was 1.19 ± 0.94 h. For the same compound, the t1/2 (oral PU-48 SNEDDS 3 mg/kg) was 7.14 ± 2.93 h, the AUC(0-inf) (oral PU-48 SNEDDS 6 mg/kg) was 108 ± 52.5 ng·h/mL and the AUC(0-t) (oral PU-48 SNEDDS 6 mg/kg) was 107 ± 53 ng·h/mL. For the same compound, the Cmax (oral PU-48 SNEDDS 6 mg/kg) was 52.9 ± 46.8 ng/mL, the Tmax (oral PU-48 SNEDDS 6 mg/kg) was 0.63 ± 0.31 h and the AUC(0-inf) (oral PU-48 SNEDDS 12 mg/kg) was 181 ± 62.5 ng·h/mL. It also gave an AUC(0-t) (oral PU-48 SNEDDS 12 mg/kg) of 179 ± 60.1 ng·h/mL, a Cmax (oral PU-48 SNEDDS 12 mg/kg) of 94.3 ± 49.6 ng/mL and a t1/2 (oral PU-48 SNEDDS 12 mg/kg) of 6.87 ± 3.49 h. The “Mean plasma concentration at the 48 h time point” value (rat, oral 3, 6 and 12 mg/kg, LLOQ 0.1 ng/mL) was “below the lower limit of quantitation (LLOQ)”, the half-life (rat, plasma, po, 3 mg/kg, oral PU-48 SNEDDS 3 mg/kg) was 7.1 ± 2.9 h and the Tmax (rat, plasma, po, 3 mg/kg, oral PU-48 SNEDDS 3 mg/kg, read-out: Tmax) was 1.2 ± 0.9 h. It also gave a half-life (rat, plasma, po, 6 mg/kg, oral PU-48 SNEDDS 6 mg/kg) of 7 ± 2.7 h, a Tmax (rat, plasma, po, 6 mg/kg, oral PU-48 SNEDDS 6 mg/kg, read-out: Tmax) of 0.6 ± 0.3 h and a half-life (rat, plasma, po, 12 mg/kg, oral PU-48 SNEDDS 12 mg/kg) of 6.9 ± 3.5 h. It also gave a Tmax (rat, plasma, po, 12 mg/kg, oral PU-48 SNEDDS 12 mg/kg, read-out: Tmax) of 0.5 ± 0.27 h.
